This note sets out measurements from patent US20250244312A1, “EX VIVO COLONIC BIOPSY PLATFORM TO EVALUATE MULTI-OMIC SIGNATURES FOR SCREENING CANDIDATE THERAPEUTICS” (Athos Therapeutics, Inc., priority 2020, published 2025).

Type in all cases: cell-based, human
The test system of data set [1] is miR-24-3p. Nature of the data set: miR-24-3p expression in UC colonic explant culture (LNA miRNA PCR assay). The conditions noted are these: 1 uM, 12 h, UC colonic explant tissue pellet. The method, then: (§1) Step 1: A biopsy was obtained from a macroscopically disease area of the inflammatory intestinal mucosa of an IBD patient. Samples can be from small or large intestine and the patient can be afflicted with, or suspected of having, UC or CD. The medium used to transport mucosal colonic biopsies from IBD patients was pre-cooled on ice, and comprised: Dulbecco's Modified Eagle Medium (DMEM) liquid (High Glucose), 4 mM L-alanyl-L-glutamine dipeptide, 1% penicillin/streptomycin and […] gentamicin. Tissue culture was initiated less than 1 hour after collection.
(§2) Step 2: Once in the laboratory, the biopsy was washed in Hank's Balanced Salt Solution buffer for a few minutes (e.g., 2-5 min) and cut with sterile scalpels to create biopsy pieces (approximately 2-5 um sections). Media comprising Dulbecco's Modified Eagle Medium (DMEM) liquid (High Glucose), 4 mM L-alanyl-L-glutamine dipeptide, 1% FBS, 1% non-essential amino acids, 1% Sodium Pyruvate, 1% penicillin/streptomycin, […] gentamicin and 5 ug/ml insulin-transferrin-selenium-X, was pre-warmed at 37° C. and added to the pieces of the biopsy. The average volume of media for each biopsy was 1.5 mL, which allows generation of 10 replicates in a 96 well plate (150 uL/well) or 60 replicates in a 384 well plate (25 uL/well). The plates then were cultured in a humidified chamber with 95% O2 and 5% CO2. […]

In data set [2] the test system is TNFA. Nature of the data set: TNFA level in supernatant of colonic explant culture (ELISA), ex vivo biopsy high throughput platform. The conditions noted are these: 12 h; for TNFA levels / effectiveness at reducing TNFA levels, compared with the other inhibitors: 10 uM; for TNFA levels: supernatant of UC active disease colonic biopsy replicate, vs untreated control well; for effectiveness at reducing TNFA levels, compared with the other inhibitors: UC colonic explant. The protocol:
as §1
(§3) Step 2: Once in the laboratory, the biopsy was washed in Hank's Balanced Salt Solution buffer for a few minutes (e.g., 2-5 min) and cut with sterile scalpels to create biopsy pieces (approximately 2-5 um sections). Media comprising Dulbecco's Modified Eagle Medium (DMEM) liquid (High Glucose), 4 mM L-alanyl-L-glutamine dipeptide, 1% FBS, 1% non-essential amino acids, 1% Sodium Pyruvate, 1% penicillin/streptomycin, […] gentamicin and 5 ug/ml insulin-transferrin-selenium-X, was pre-warmed at 37° C. and added to the pieces of the biopsy. The average volume of media for each biopsy was 1.5 mL, which allows generation of 10 replicates in a 96 well plate (150 uL/well) or 60 replicates in a 384 well plate (25 uL/well). The plates then were cultured in a humidified chamber with 95% O2 and 5% CO2. The 96-and 384-well plates are two non-limiting embodiments of the platform assay disclosed herein, though additional embodiments of the high throughput platform disclosed herein can be used to predict drug responses by evaluating multi-omic signatures in other multi-well formats.
(§4) An embodiment of the ex vivo biopsy high throughput platform was used to assess the effects of G9A inhibitors BIX01294 (cat. No 3364, Tocris) and UNC0642 (cat. No 5132, Tocris), JMJD3 inhibitors GSK-J4 (cat. No 4594, Tocris) and JIB-04 (cat. No 4972, Tocris), and an EZH2 inhibitor UNC1999 (cat. No 4904, Tocris) (10 uM) on a multi-omic response, evaluating cytokine production levels and global chromatin H3K9me2 and H3K27me3 levels in UC active disease colonic explants.
(§5) Specifically, a UC active disease colonic biopsy was processed as described in Example 1 and separated into 6 replicates in a 96-well plate. One well was used as control and the rest were treated with each compound at the concentration of 10 uM. Twelve hours later, 50 uL of supernatant was collected to evaluate IL-1B (#KHC0011, ThermoFisher) and TNFA levels (#BMS223HS, ThermoFisher); meanwhile, the tissue pellet was also collected and processed to check H3K9me2 (#P-3032, Epigentek) and H3K27me3 (#P-3020,Epigentek) levels by ELISA assay.
(§6) The biopsy was processed as described in Example 1. Briefly, one well was used as control and treated with RNA-negative control (miR-NC, cat no. YI00199006, Qiagen) (1 uM), a second well was treated with the miR-24-A inhibitor (1 uM), and a third well was treated with miR-24-B inhibitor (1 uM). 50 uL of supernatant was collected to evaluate IL1B and TNFA levels and tissue pellet was collected and processed for RNA extraction (miRNeasy Kit, Qiagen). MicroRNA LNA miRNA PCR assays (Qiagen) were performed for miR-24-3p (cat.no YP00204260, Qiagen).
(In general: In an ELISA, binding on a coated surface is turned into a signal by an enzyme label.)

Data set [3] has as its system IL-1B. Nature of the data set: IL-1B level in supernatant of colonic explant culture (ELISA), ex vivo biopsy high throughput platform. The conditions noted are these: 12 h; for IL-1B levels / effectiveness at reducing IL1B levels, compared with the other inhibitors: 10 uM; for IL-1B levels: supernatant of UC active disease colonic biopsy replicate, vs untreated control well; for effectiveness at reducing IL1B levels, compared with the other inhibitors: UC colonic explant. The method, then: as §1, §3, §4, §5, §6

Data set [4] concerns H3K9me2. Kind of data set: Global chromatin H3K9me2 level in colonic explant tissue pellet (ELISA). The settings on record: 10 uM, 12 h, tissue pellet of UC colonic explant. The protocol: as §1, §2
In data set [5] the test system is H3K27me3. Nature of the data set: Global chromatin H3K27me3 level in colonic explant tissue pellet (ELISA). The conditions noted are these: 10 uM, 12 h, tissue pellet of UC colonic explant. The protocol:
as §1
as §3, with “formats. […]” for “formats.”

In data set [6] the test system is IBD colonic explants. Kind of data set: Cell viability of colonic explants (CellTiter-Blue assay). The method, then:
as §1
Step 3: Cell viability evaluation. To evaluate the effects of any drug using a colonic explant assay, the viability of the colonic explant in culture is examined. The experimental conditions related to the culture viability of the colonic explants were optimized by focusing on the media composition during the transfer of the biopsy from the patient biopsy collection site to the laboratory and the duration of culturing the explant.
CellTiter-Blue assay (Promega) was used to evaluate cell viability of the colonic explants. Briefly, the CellTiter-Blue reagent was added in the culture and the fluorescent signal was measured (560/590 nm) after 1 h of incubation in 37° C. […]
In general terms: The colour change of resazurin is a common sign of viable cells or microbes.

The mark [7] stands for this setting: 1 uM, UC colonic explant supernatant, control miR-NC.

Peptide text beside a SMILES is read from it. l = locked nucleic acid (LNA); [5mC] = 5-methylcytosine; d = 2'-deoxy (DNA)

Turning to “5-CTG^mCTGAA^mCTGAG^mCCA-3 (antisense CTGCTGAACTGAGCCA; sugars from the 5' end l3 d6 l2 d3 l2, [5mC] at 4, 9, 14, all phosphorothioate, methylation of C not given here) [miR-24-A, antisense-miR-24-3p compound; phosphorothioate linkages bases 1-16, LNA at bases 1-3, 10-11, 15-16,5-methylcytosine at positions 4,9, 14]”, in data set [1], the “miR-24-3p expression levels, compared to miR-24-B inhibitor” value is “more effectively suppressed”. For the same compound, the “reducing TNFA levels, compared to miR-24-B inhibitor” value in data set [2] (setting [7]) was “more effective”. Further, the “reducing IL1B levels, compared to miR-24-B inhibitor” value in data set [3] (setting [7]) was “more effective”.
In the case of `COc1cc2nc(N3CCCN(C)CC3)nc(NC3CCN(Cc4ccccc4)CC3)c2cc1OC` [BIX01294], in data set [4], the H3K9me2 levels result is on record as “reduced”. In addition, in data set [2], the TNFA levels result is “reduced”. Also, the IL-1B levels entry in data set [3] is listed as “reduced”.
As for `CCOC(=O)CCNc1cc(N2CCc3ccccc3CC2)nc(-c2ccccn2)n1` [GSK-J4], in data set [2], the “effectiveness at reducing TNFA levels, compared with the other inhibitors” value was “more effective than BIX01294 and JIB-04”; the TNFA levels result is listed as “reduced”. Also, in data set [3], the “effectiveness at reducing IL1B levels, compared with the other inhibitors” value is “more effective than BIX01294 and JIB-04”; the IL-1B levels result is given as “reduced”. Besides, the H3K27me3 levels result in data set [5] was “increased”.
For `Clc1ccc(N/N=C(\c2ccccc2)c2ccccn2)nc1` [JIB-04], the TNFA levels entry in data set [2] is recorded as “reduced”. The IL-1B levels result in data set [3] is “reduced”. In addition, the H3K27me3 levels entry in data set [5] is “increased”.
As to `C[C@H](N)C(=O)N[C@@H](CCC(N)=O)C(=O)O` [L-alanyl-L-glutamine dipeptide] (H-Ala-Gln-OH), in data set [6] (added to the transfer media (DMEM, penicillin/streptomycin, gentamicin)), the “cell viability of colonic explants” value is recorded as “substantial increase in cell viability”. Further, the “concentration identified to have the highest cell viability” value in data set [6] (in transfer media) worked out at 4 mM.
As to `COc1cc2c(NC3CCN(C(C)C)CC3)nc(N3CCC(F)(F)CC3)nc2cc1OCCCN1CCCC1` [UNC0642], the H3K9me2 levels result in data set [4] is on record as “reduced”. In data set [2], the “effectiveness at reducing TNFA levels, compared with the other inhibitors” value was “more effective than BIX01294 and JIB-04”; the TNFA levels result is given as “reduced”. In data set [3], the “effectiveness at reducing IL1B levels, compared with the other inhibitors” value was “more effective than BIX01294 and JIB-04”; the IL-1B levels result is on record as “reduced”.
On to `CCCc1cc(C)[nH]c(=O)c1CNC(=O)c1cc(-c2ccc(N3CCN(C(C)C)CC3)nc2)cc2c1cnn2C(C)C` [UNC1999], for which the TNFA levels result in data set [2] is “increased”. Moreover, the IL-1B levels entry in data set [3] is on record as “increased”. Also, the H3K27me3 levels result in data set [5] is “reduced”.
